Laboratory results taken from PubChem BioAssay AID330 (DTP/NCI, 2004).
Values joined by “and” are separate entries in the source; they are usually repeats but may differ in a detail not shown here. Equal entries are not always repeated. Inconclusive results and toxic doses are left out. How the source made its calls: active means survival T/C of 150% or more; inactive means T/C below 125% in these data.

System: P388 leukemia ip, CD2F1 mice, survival T/C
Assay: NCI In Vivo Anticancer Drug Screen. Data for tumor model P388 Leukemia (intraperitoneal) in CD2F1 (CDF1) mice
Conditions: endpoint: median survival time, higher = longer survival
How it was run: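 Mice carrying the transplanted tumor received test compound or vehicle. Survival was recorded in each group, and the value is the treated-group measurement divided by that of the vehicle-treated control group.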

[1] = dose: 50.0 mg/kg/injection, schedule: Q01DX005 (ip), vehicle: Klucel (hydroxypropylcellulose) (HPC)
[2] = dose: 100.0 mg/kg/injection, schedule: Q01DX005 (ip), vehicle: Klucel (hydroxypropylcellulose) (HPC)
[3] = dose: 200.0 mg/kg/injection, schedule: Q01DX005 (ip), vehicle: Klucel (hydroxypropylcellulose) (HPC)
[4] = dose: 12.5 mg/kg/injection, schedule: Q04DX003 (ip), vehicle: saline with Tween-80
[5] = dose: 25.0 mg/kg/injection, schedule: Q04DX003 (ip), vehicle: saline with Tween-80
[6] = dose: 50.0 mg/kg/injection, schedule: Q04DX003 (ip), vehicle: saline with Tween-80
[7] = dose: 50.0 mg/kg/injection, schedule: Q01DX005 (ip), vehicle: saline with Tween-80
[8] = dose: 100.0 mg/kg/injection, schedule: Q01DX005 (ip), vehicle: saline with Tween-80
[9] = dose: 200.0 mg/kg/injection, schedule: Q01DX005 (ip), vehicle: saline with Tween-80
[10] = dose: 60.0 mg/kg/injection, schedule: Q01DX005 (ip), vehicle: Klucel (hydroxypropylcellulose) (HPC)
[11] = dose: 120.0 mg/kg/injection, schedule: Q01DX005 (ip), vehicle: Klucel (hydroxypropylcellulose) (HPC)
[12] = dose: 240.0 mg/kg/injection, schedule: Q01DX005 (ip), vehicle: Klucel (hydroxypropylcellulose) (HPC)
[13] = dose: 100.0 mg/kg/injection, schedule: Q04DX003 (ip), vehicle: saline with Tween-80

Measured: T/C

CCOC(=O)Cc1oc2c(C(C)=O)c(O)c(C)c(O)c2c1C
inactive: [1] 88 % of control | [2] 89 % of control | [3] 87 % of control

O=C(C=C(C(F)(F)F)C(F)(F)F)c1ccco1
inactive: [4] 100 % of control | [5] 109 % of control | [6] 95 % of control

CC12Cc3ccccc3CC1OCN1CN2COC2Cc3ccccc3CC21C (configuration not stated)
inactive: dose: 50.0 mg/kg/injection, schedule: Q01DX005 (ip), vehicle: saline 105 % of control | dose: 100.0 mg/kg/injection, schedule: Q01DX005 (ip), vehicle: saline 98 % of control | dose: 200.0 mg/kg/injection, schedule: Q01DX005 (ip), vehicle: saline 90 % of control

CC1(c2ccccc2)COC(=O)O/C1=N/OCc1ccccc1 (configuration not stated)
inactive: [7] 100 % of control | [8] 107 % of control | [9] 99 % of control

CC(Nc1ccc(S(=O)(=O)Nc2ncccn2)cc1)c1ccc2cccnc2c1O (configuration not stated)
inactive: dose: 100.0 mg/kg/injection, schedule: Q01DX001 (ip), vehicle: saline with Tween-80 94 % of control | dose: 200.0 mg/kg/injection, schedule: Q01DX001 (ip), vehicle: saline with Tween-80 98 % of control

COc1ccc(/C=N/NC(=O)C(=O)Nc2ccc(Cl)c([N+](=O)[O-])c2)cc1OC
inactive: [7] 93 % of control | [8] 92 % of control | [9] 103 % of control

C/C(=N\N/C(N)=N/S(=O)(=O)c1ccc(C)cc1)c1ccc(C)cc1
inactive: dose: 50.0 mg/kg/injection, schedule: Q04DX002 (ip), vehicle: saline with Tween-80 100 % of control | dose: 100.0 mg/kg/injection, schedule: Q04DX002 (ip), vehicle: saline with Tween-80 97 % of control | dose: 200.0 mg/kg/injection, schedule: Q04DX002 (ip), vehicle: saline with Tween-80 98 % of control

Cc1cc(C)nc(NC(N)=NCCc2ccccc2)n1
inactive: [4] 104 % of control | [5] 100 % of control | [6] 100 % of control

CN=C(N)N
inactive: dose: 50.0 mg/kg/injection, schedule: Q01DX001 (ip), vehicle: saline 100 % of control | dose: 100.0 mg/kg/injection, schedule: Q01DX001 (ip), vehicle: saline 98 % of control | dose: 200.0 mg/kg/injection, schedule: Q01DX001 (ip), vehicle: saline 100 % of control | dose: 400.0 mg/kg/injection, schedule: Q01DX001 (ip), vehicle: saline 101 % of control

CC(=O)OCc1ccc(Cl)cc1
inactive: dose: 50.0 mg/kg/injection, schedule: Q01DX009 (ip), vehicle: saline with Tween-80 99 % of control | dose: 50.0 mg/kg/injection, schedule: Q04DX003 (ip), vehicle: saline 100 % of control | dose: 100.0 mg/kg/injection, schedule: Q01DX009 (ip), vehicle: saline with Tween-80 99 % of control | dose: 100.0 mg/kg/injection, schedule: Q04DX003 (ip), vehicle: saline 104 % of control | dose: 200.0 mg/kg/injection, schedule: Q01DX009 (ip), vehicle: saline with Tween-80 114 % of control | dose: 200.0 mg/kg/injection, schedule: Q04DX003 (ip), vehicle: saline 113 % of control | dose: 400.0 mg/kg/injection, schedule: Q01DX009 (ip), vehicle: saline with Tween-80 123 % of control

Clc1ccccc1-n1cccc1/C=N\N=C/c1cccn1-c1ccccc1Cl
inactive: [7] 107 % of control | [8] 110 % of control and 86 % of control | [9] 121 % of control and 86 % of control and 90 % of control

NC(=O)c1nnn(Cc2cc(Cl)c(C(=O)c3ccc(Cl)cc3)c(Cl)c2)c1N
inactive: [10] 103 % of control | [11] 103 % of control | [12] 115 % of control | dose: 480.0 mg/kg/injection, schedule: Q01DX005 (ip), vehicle: Klucel (hydroxypropylcellulose) (HPC) 119 % of control

CCCSCCNC(=O)C1(O)C(O)C2(CC)C=CCN3CCC4(c5cc(C6(OC(C)=O)CC7C=C(CC)CN(CCc8c6[nH]c6ccccc86)C7)c(OC)cc5N(C)C14)C32 (configuration not stated)
active: dose: 4.0 mg/kg/injection, schedule: Q01DX001 (ip), vehicle: water 159 % of control | dose: 8.0 mg/kg/injection, schedule: Q01DX001 (ip), vehicle: water 161 % of control | dose: 16.0 mg/kg/injection, schedule: Q01DX001 (ip), vehicle: water 158 % of control and 198 % of control
inactive: dose: 0.5 mg/kg/injection, schedule: Q01DX001 (ip), vehicle: water 107 % of control | dose: 2.0 mg/kg/injection, schedule: Q01DX001 (ip), vehicle: water 111 % of control

O=c1[nH]c2c(=O)[nH][nH]c(=O)c2[nH]c1=O
inactive: dose: 15.0 mg/kg/injection, schedule: Q01DX005 (ip), vehicle: saline with Tween-80 103 % of control | dose: 30.0 mg/kg/injection, schedule: Q01DX005 (ip), vehicle: saline with Tween-80 100 % of control | dose: 60.0 mg/kg/injection, schedule: Q01DX005 (ip), vehicle: saline with Tween-80 99 % of control and 105 % of control

N=C(N)c1ccc(N=Nc2cc(N=Nc3ccccc3)ccc2O)cc1
inactive: dose: 25.0 mg/kg/injection, schedule: Q01DX005 (ip), vehicle: Klucel (hydroxypropylcellulose) (HPC) 109 % of control | [1] 113 % of control | [2] 115 % of control | [3] 115 % of control

O=C(c1ccc(Cl)cc1)n1c(Cl)c(/C=N\Nc2ccccc2[N+](=O)[O-])c2ccccc21
inactive: [13] 93 % of control | dose: 200.0 mg/kg/injection, schedule: Q04DX003 (ip), vehicle: saline with Tween-80 90 % of control | dose: 400.0 mg/kg/injection, schedule: Q04DX003 (ip), vehicle: saline with Tween-80 92 % of control

CCCCCCCCCCCC(=O)NCC(=O)NC1C(CO)OC(Nc2ncnc3nc[nH]c23)C(O)C1O (configuration not stated)
inactive: dose: 0.06 mg/kg/injection, schedule: Q01DX009 (ip), vehicle: water 93 % of control | dose: 0.12 mg/kg/injection, schedule: Q01DX009 (ip), vehicle: water 101 % of control | dose: 0.13 mg/kg/injection, schedule: Q01DX009 (ip), vehicle: other 103 % of control | dose: 0.25 mg/kg/injection, schedule: Q01DX009 (ip), vehicle: other 113 % of control | dose: 0.25 mg/kg/injection, schedule: Q01DX009 (ip), vehicle: water 99 % of control | dose: 0.5 mg/kg/injection, schedule: Q01DX009 (ip), vehicle: other 121 % of control | dose: 0.5 mg/kg/injection, schedule: Q01DX009 (ip), vehicle: water 99 % of control | dose: 1.0 mg/kg/injection, schedule: Q01DX009 (ip), vehicle: water 105 % of control | dose: 2.0 mg/kg/injection, schedule: Q01DX009 (ip), vehicle: other 100 % of control and 86 % of control | dose: 2.0 mg/kg/injection, schedule: Q01DX009 (ip), vehicle: water 124 % of control

CC(C)c1ccc(C(O)C2CC2)cc1 (configuration not stated)
inactive: [6] 109 % of control | [13] 95 % of control

Cn1c(=O)[nH]c2c(c1=O)CCCN2
inactive: dose: 100.0 mg/kg/injection, schedule: Q04DX002 (ip), vehicle: Klucel (hydroxypropylcellulose) (HPC) 104 % of control | dose: 200.0 mg/kg/injection, schedule: Q04DX002 (ip), vehicle: Klucel (hydroxypropylcellulose) (HPC) 98 % of control | dose: 400.0 mg/kg/injection, schedule: Q04DX002 (ip), vehicle: Klucel (hydroxypropylcellulose) (HPC) 98 % of control

Nc1ccnc(Sc2ncccc2[N+](=O)[O-])n1
inactive: [1] 100 % of control | [2] 100 % of control | [3] 93 % of control

CC1(C)OC2(C)CCC1C1C2N1C(=O)c1ccc([N+](=O)[O-])cc1 (configuration not stated)
inactive: [1] 96 % of control | [2] 102 % of control | [3] 110 % of control

Cc1cc(N2C(=O)CCSC2=S)ccc1Cl
inactive: dose: 12.5 mg/kg/injection, schedule: Q01DX009 (ip), vehicle: Klucel (hydroxypropylcellulose) (HPC) 120 % of control | dose: 25.0 mg/kg/injection, schedule: Q01DX009 (ip), vehicle: Klucel (hydroxypropylcellulose) (HPC) 119 % of control | dose: 50.0 mg/kg/injection, schedule: Q01DX009 (ip), vehicle: Klucel (hydroxypropylcellulose) (HPC) 109 % of control and 114 % of control | dose: 50.0 mg/kg/injection, schedule: Q01DX009 (ip), vehicle: suspension in saline 97 % of control | dose: 100.0 mg/kg/injection, schedule: Q01DX009 (ip), vehicle: suspension in saline 90 % of control | dose: 200.0 mg/kg/injection, schedule: Q01DX009 (ip), vehicle: Klucel (hydroxypropylcellulose) (HPC) 102 % of control | dose: 200.0 mg/kg/injection, schedule: Q01DX009 (ip), vehicle: suspension in saline 92 % of control

CN(C)c1ccc(C2CC(C)(O)Oc3cc4c(cc32)OCO4)cc1 (configuration not stated)
inactive: [10] 102 % of control | [11] 110 % of control | [12] 108 % of control
